From the NIST ThermoML archive (doi:10.1021/je300941v)

How the values were obtained:
[1] = xn = mol fraction of the nth substance listed; details: 101 kPa, Liquid, Vibrating tube method
[2] = 101.33 kPa, Liquid, Vibrating tube method

CCCC[N+]1(C)CCCC1.O=S(=O)([N-]S(=O)(=O)C(F)(F)F)C(F)(F)F + CN(C)C=O
mass density [kg/m3], [1]
Details | x1 = 0.0912 | x1 = 0.1871 | x1 = 0.2922 | x1 = 0.3783 | x1 = 0.4845 | x1 = 0.5809 | x1 = 0.6768 | x1 = 0.7744 | x1 = 0.8686
293.15 K | 1074.98 | 1161.1 | 1224.53 | 1262.14 | 1298.31 | 1324.74 | 1346.86 | 1366.1 | 1381.39
298.15 K | 1070.09 | 1156.23 | 1219.62 | 1257.32 | 1293.53 | 1319.99 | 1342.16 | 1361.38 | 1376.73
303.15 K | 1065.22 | 1151.35 | 1214.77 | 1252.53 | 1288.82 | 1315.37 | 1337.55 | 1356.72 | 1372.14
308.15 K | 1060.4 | 1146.5 | 1210 | 1247.8 | 1284.1 | 1310.7 | 1332.9 | 1352 | 1367.6
313.15 K | 1055.43 | 1141.58 | 1205.17 | 1243.01 | 1279.29 | 1306.04 | 1328.25 | 1347.28 | 1363.02
318.15 K | 1050.48 | 1136.63 | 1200.26 | 1238.22 | 1274.53 | 1301.32 | 1323.54 | 1342.91 | 1358.3
323.15 K | 1045.36 | 1131.55 | 1195.32 | 1233.32 | 1269.65 | 1296.48 | 1318.83 | 1338.2 | 1353.61

CNC=O [N-methylformamide]
[2]
Details | mass density [kg/m3]
293.15 K | 1003.59
298.15 K | 999.19
303.15 K | 994.75
308.15 K | 990.33
313.15 K | 985.78
318.15 K | 981.23
323.15 K | 976.57

CN(C)C=O [dimethylformamide]
[2]
Details | mass density [kg/m3]
293.15 K | 948.79
298.15 K | 943.87
303.15 K | 938.98
308.15 K | 934.07
313.15 K | 929.11
318.15 K | 924.04
323.15 K | 918.91
